Test results reported in patent publication US20230407243A1, “GENETIC PLATFORM TO INVESTIGATE THE FUNCTIONS OF BACTERIAL DRUG EFFLUX PUMPS” (priority 2022, published 2023).
Read-outs that look alike come from different tables or passages of the source.

How the values were obtained:
Assay type in all cases: cell-based, Escherichia coli
[1] = system: E. coli EKO-35; assay: microbe, parasite or virus in culture; details: for Fold change of MICs: EKO-35 compared to EKO-35 (reference); for MIC: Escherichia coli, EKO35
How it was run: (§1)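 MHB II broth microdilution; inoculum from 18 h LB culture, PBS-adjusted to OD600 ~1.0, then 1/2000 dilution. Compounds 2-fold titrated, duplicates, DMSO solvent control. 18 h, 37 °C, 900 rpm; background-corrected OD600 end point.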

[2] = system: E. coli ΔtolC; assay: microbe, parasite or virus in culture; details: for Minimum inhibitory concentration (MIC), ΔtolC: Table 10, without pore
How it was run: as §1

[3] = system: wild-type E. coli K-12 str. BW25113; assay: microbe, parasite or virus in culture; details: technical duplicate; for MIC: Escherichia coli, BW25113
How it was run: as §1

[4] = system: EKO-35 araC::acrBD408A; assay: MIC susceptibility profiling, efflux platform; details: for Fold change of MICs: EKO-35 araC::acrBD408A compared to EKO-35
How it was run: as §1

[5] = system: EKO-35 araC::acrB; assay: MIC susceptibility profiling, efflux platform; details: for Fold change of MICs: EKO-35 araC::acrB compared to EKO-35
How it was run: as §1

[6] = system: EKO-35 araC::acrD; assay: MIC susceptibility profiling, efflux platform; details: for Fold change of MICs: EKO-35 araC::acrD compared to EKO-35
How it was run: as §1

[7] = system: EKO-35 araC::acrEF; assay: MIC susceptibility profiling, efflux platform; details: for Fold change of MICs: EKO-35 araC::acrEF compared to EKO-35
How it was run: as §1

[8] = system: EKO-35 araC::emrAB; assay: MIC susceptibility profiling, efflux platform; details: for Fold change of MICs: EKO-35 araC::emrAB compared to EKO-35
How it was run: as §1

[9] = system: EKO-35 araC::emrKY; assay: MIC susceptibility profiling, efflux platform; details: for Fold change of MICs: EKO-35 araC::emrKY compared to EKO-35
How it was run: as §1

[10] = system: EKO-35 araC::macAB; assay: MIC susceptibility profiling, efflux platform; details: for Fold change of MICs: EKO-35 araC::macAB compared to EKO-35
How it was run: as §1

[11] = system: EKO-35 araC::mdtBC; assay: MIC susceptibility profiling, efflux platform; details: for Fold change of MICs: EKO-35 araC::mdtBC compared to EKO-35
How it was run: as §1

[12] = system: EKO-35 araC::mdtEF; assay: MIC susceptibility profiling, efflux platform; details: for Fold change of MICs: EKO-35 araC::mdtEF compared to EKO-35
How it was run: as §1

[13] = system: EKO-35 araC::mexCD (MexCD from P. aeruginosa); assay: MIC susceptibility profiling, efflux platform; details: for Fold change of MICs: EKO-35 araC::mexCD compared to EKO-35
How it was run: as §1

[14] = system: wild-type (WT) K-12-Pore; assay: microbe, parasite or virus in culture; details: technical duplicate; for MIC: Escherichia coli
How it was run: (§2)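 E. coli strains carrying a genomically integrated constitutive fhuA ΔC/Δ4L pore were grown 18 h in LB at 37 °C, then diluted 1/2000 in MHB II from OD600 ~1.0. Compounds were tested in duplicate, 2-fold serial titration, for 18 h at 37 °C with shaking. MIC came from OD600 with the pre-incubation background subtracted.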

[15] = system: ΔtolC-Pore; assay: microbe, parasite or virus in culture; details: for Minimum inhibitory concentration (MIC), Pore ΔtolC: Table 10, with pore
How it was run: as §2

[16] = system: EKO-35 araC::acrEF Pore; assay: MIC susceptibility profiling, porinated efflux platform; details: for Fold changes of MICs: EKO-35 araC::acrEF Pore compared to EKO-35-Pore
How it was run: as §2

[17] = system: EKO-35 araC::emrKY Pore; assay: as above; details: for Fold changes of MICs: EKO-35 araC::emrKY Pore compared to EKO-35-Pore
How it was run: as §2

[18] = system: EKO-35 araC::macAB Pore; assay: as above; details: for Fold changes of MICs: EKO-35 araC::macAB Pore compared to EKO-35-Pore
How it was run: as §2

[19] = system: EKO-35 araC::mdtEF Pore; assay: as above; details: for Fold changes of MICs: EKO-35 araC::mdtEF Pore compared to EKO-35-Pore
How it was run: as §2

[20] = Table 13A, non-porinated, technical duplicate
[21] = Table 13B, non-porinated, technical duplicate
[22] = Table 14A, porinated, technical duplicate

## O=C(Nc1cccc(Oc2c(F)c(F)c(F)c(F)c2F)c1)c1ccccc1 [compound 1]
[1]
  Fold change of MICs: 1 fold
[1]; Table 10, without pore, technical duplicate
  Minimum inhibitory concentration (MIC), EKO-35: 320 µg/mL
[1]; [20]
  Minimum Inhibitory Concentration, EKO-35: 320 µg/mL
[2]; technical duplicate
  Minimum inhibitory concentration (MIC), ΔtolC: 5 µg/mL
[2]; [20]
  Minimum Inhibitory Concentration, ΔtolC: 5 µg/mL
[3]; Table 10, without pore
  Minimum inhibitory concentration (MIC), K-12: 320 µg/mL
[3]; Table 13A, non-porinated
  Minimum Inhibitory Concentration, K-12: 320 µg/mL
[4]
  Fold change of MICs: 1 fold
[4]; [21]
  Minimum Inhibitory Concentration, EKO-35 araC::acrBD408A: 320 µg/mL
[5]
  Fold change of MICs: 1 fold
[5]; [20]
  Minimum Inhibitory Concentration, EKO-35 araC::acrB: 320 µg/mL
[6]
  Fold change of MICs: 1 fold
[6]; [20]
  Minimum Inhibitory Concentration, EKO-35 araC::acrD: 320 µg/mL
[7]
  Fold change of MICs: 1 fold
[7]; [20]
  Minimum Inhibitory Concentration, EKO-35 araC::acrEF: 320 µg/mL
[8]
  Fold change of MICs: 1 fold
[8]; [21]
  Minimum Inhibitory Concentration, EKO-35 araC::emrAB: 320 µg/mL
[9]
  Fold change of MICs: 1 fold
[9]; [21]
  Minimum Inhibitory Concentration, EKO-35 araC::emrKY: 320 µg/mL
[10]
  Fold change of MICs: 1 fold
[10]; [21]
  Minimum Inhibitory Concentration, EKO-35 araC::macAB: 320 µg/mL
[11]
  Fold change of MICs: 1 fold
[11]; [21]
  Minimum Inhibitory Concentration, EKO-35 araC::mdtBC: 320 µg/mL
[12]
  Fold change of MICs: 1 fold
[12]; [20]
  Minimum Inhibitory Concentration, EKO-35 araC::mdtEF: 320 µg/mL
[13]
  Fold change of MICs: 1 fold
[13]; [21]
  Minimum Inhibitory Concentration, EKO-35 araC::mexCD: 320 µg/mL
[14]; Table 10, with pore
  Minimum inhibitory concentration (MIC), Pore K-12: 320 µg/mL
[14]; Table 14A, porinated
  Minimum inhibitory concentration, K-12 (WT)-Pore: 320 µg/mL
[15]; technical duplicate
  Minimum inhibitory concentration (MIC), Pore ΔtolC: 10 µg/mL
[15]; [22]
  Minimum inhibitory concentration, ΔtolC-Pore: 10 µg/mL
[16]
  Fold changes of MICs: 1 fold
[16]; [22]
  Minimum inhibitory concentration, EKO-35 araC::acrEF Pore: 320 µg/mL
[17]
  Fold changes of MICs: 1 fold
[17]; EKO-35 araC::emrKY Pore, technical duplicate
  Minimum inhibitory concentration: 320 µg/mL
[18]
  Fold changes of MICs: 1 fold
[18]; EKO-35 araC::macAB Pore, technical duplicate
  Minimum inhibitory concentration: 320 µg/mL
[19]
  Fold changes of MICs: 1 fold
[19]; [22]
  Minimum inhibitory concentration, EKO-35 araC::mdtEF Pore: 320 µg/mL

## CC[C@H]1OC(=O)[C@H](C)[C@@H](O[C@H]2C[C@@](C)(OC)[C@@H](O)[C@H](C)O2)[C@H](C)[C@@H](O[C@@H]2O[C@H](C)C[C@H](N(C)C)[C@H]2O)[C@](C)(O)C[C@@H](C)CN(C)[C@H](C)[C@@H](O)[C@]1(C)O [azithromycin]
[1]
  Fold change of MICs: 1 fold
[1]; Table 10, without pore, technical duplicate, read-out: Minimum inhibitory concentration (MIC), EKO-35
  MIC: 0.781 µg/mL
[1]; Table 13A, non-porinated, technical duplicate, read-out: Minimum Inhibitory Concentration, EKO-35
  MIC: 0.781 µg/mL
[2]; Escherichia coli, 18 h, read-out: Minimum Inhibitory Concentration, ΔtolC
  MIC: 0.781 µg/mL
[2]; technical duplicate
  Minimum inhibitory concentration (MIC), ΔtolC: 0.781 µg/mL
[3]; Table 10, without pore, read-out: Minimum inhibitory concentration (MIC), K-12
  MIC: 6.25 µg/mL
[3]; Table 13A, non-porinated, read-out: Minimum Inhibitory Concentration, K-12
  MIC: 6.25 µg/mL
[4]
  Fold change of MICs: 1 fold
[4]; Escherichia coli, Table 13B, non-porinated, technical duplicate, read-out: Minimum Inhibitory Concentration, EKO-35 araC::acrBD408A
  MIC: 0.781 µg/mL
[5]
  Fold change of MICs: 16 fold
[5]; Escherichia coli, Table 13A, non-porinated, technical duplicate, read-out: Minimum Inhibitory Concentration, EKO-35 araC::acrB
  MIC: 12.5 µg/mL
[6]
  Fold change of MICs: 1 fold
[6]; Escherichia coli, Table 13A, non-porinated, technical duplicate, read-out: Minimum Inhibitory Concentration, EKO-35 araC::acrD
  MIC: 0.781 µg/mL
[7]
  Fold change of MICs: 8 fold
[7]; Escherichia coli, Table 13A, non-porinated, technical duplicate, read-out: Minimum Inhibitory Concentration, EKO-35 araC::acrEF
  MIC: 6.25 µg/mL
[8]
  Fold change of MICs: 1 fold
[8]; Escherichia coli, Table 13B, non-porinated, technical duplicate, read-out: Minimum Inhibitory Concentration, EKO-35 araC::emrAB
  MIC: 0.781 µg/mL
[9]
  Fold change of MICs: 1 fold
[10]
  Fold change of MICs: 4 fold
[10]; Escherichia coli, Table 13B, non-porinated, technical duplicate, read-out: Minimum Inhibitory Concentration, EKO-35 araC::macAB
  MIC: 3.12 µg/mL
[10]; MacAB
  efflux pump-mediated resistance vs EKO-35: specific
[11]
  Fold change of MICs: 1 fold
[11]; Escherichia coli, Table 13B, non-porinated, technical duplicate, read-out: Minimum Inhibitory Concentration, EKO-35 araC::mdtBC
  MIC: 0.781 µg/mL
[12]
  Fold change of MICs: 8 fold
[12]; Escherichia coli, Table 13A, non-porinated, technical duplicate, read-out: Minimum Inhibitory Concentration, EKO-35 araC::mdtEF
  MIC: 6.25 µg/mL
[13]
  Fold change of MICs: 4 fold
[13]; Table 13B, non-porinated, technical duplicate, read-out: Minimum Inhibitory Concentration, EKO-35 araC::mexCD
  MIC: 3.12 µg/mL
[14]; Table 10, with pore, read-out: Minimum inhibitory concentration (MIC), Pore K-12
  MIC: 0.391 µg/mL
[14]; Table 14A, porinated, read-out: Minimum inhibitory concentration, K-12 (WT)-Pore
  MIC: 0.391 µg/mL
[15]; Escherichia coli, 18 h, read-out: Minimum inhibitory concentration, ΔtolC-Pore
  MIC: 0.049 µg/mL
[15]; technical duplicate
  Minimum inhibitory concentration (MIC), Pore ΔtolC: 0.049 µg/mL
[16]
  Fold changes of MICs: 4 fold
[16]; Escherichia coli, Table 14A, porinated, technical duplicate, read-out: Minimum inhibitory concentration, EKO-35 araC::acrEF Pore
  MIC: 0.195 µg/mL
[17]
  Fold changes of MICs: 1 fold
[17]; Escherichia coli, EKO-35 araC::emrKY Pore, technical duplicate, read-out: Minimum inhibitory concentration
  MIC: 0.024 µg/mL
[18]
  Fold changes of MICs: 2 fold
[18]; Escherichia coli, EKO-35 araC::macAB Pore, technical duplicate, read-out: Minimum inhibitory concentration
  MIC: 0.098 µg/mL
[18]; MacAB with a porinated OM
  fold increase of MIC over EKO-35: 2 fold
[19]
  Fold changes of MICs: 4 fold
[19]; Escherichia coli, Table 14A, porinated, technical duplicate, read-out: Minimum inhibitory concentration, EKO-35 araC::mdtEF Pore
  MIC: 0.195 µg/mL
